Converted amounts (≈) assume the structure as drawn.
What was measured:
Format in all cases: cell-based
[1] = test system: Mycobacterium tuberculosis H37Rv; assay: Microplate Alamar Blue assay (MABA) MIC, M. tuberculosis; details: read-out: MIC Mycobacterium tuberculosis H37Rv
From the text: (§1) Minimal inhibitory concentrations (MICs) in Mycobacterium tuberculosis H37Rv and Mycobacterium avium ATCC 25291 were quantified using microplate Alamar Blue assays as described (MABA; [Collins, L. & Franzblau, S. (1997) Microplate Alamar Blue assay versus BACTEC 460 system for high-throughput screening of compounds against Mycobacterium tuberculosis and Mycobacterium avium. Antimicrob. Agents Chemother. 41, 1004-1009]).

[2] = test system: Mycobacterium avium ATCC 25291; assay: Microplate Alamar Blue assay (MABA) MIC, M. avium; details: ATCC25291, M. avium ATCC 25291
From the text: as §1

[3] = test system: Mycobacterium smegmatis ATCC 19420; assay: Broth microdilution MIC, M. smegmatis; details: Mycolicibacterium smegmatis, ATCC19420, M. smegmatis ATCC 19420; read-out: MIC Mycobacterium smegmatis ATCC 19420
From the text: MICs in Mycobacterium smegmatis ATCC 19420 and Mycobacterium smegmatis ATCC 19420 derivatives were quantified using broth microdilution assays as described [Clinical and Laboratory Standards Institute (CLSI/NCCLS) (2009) Methods for Dilution Antimicrobial Susceptibility Tests for Bacteria That Grow Aerobically; Approved Standard, Eighth Edition. CLIS Document M07-A8 (CLIS, Wayne Pa.)].

[4] = test system: Vero E6 ATCC CRL1586 cells; assay: Mammalian-cell cytotoxicity, minimal cytotoxic concentration (CellTiter96)
Protocol: Minimal cytotoxic concentrations (MCCs) against mammalian cells in culture were determined using Vero E6 ATCC CRL1586 cells and the CellTiter96 assay kit (Promega, Inc.). […]

Row | SMILES | MIC [1] [µg/mL] | MIC [2] [µg/mL] | MIC [3] [µg/mL] | MCC mammalian cells Vero E6 ATCC CRL1586 [4] [µg/mL]
1 | Cc1cccc(NC(=O)C(Cc2ccccc2)NC(=O)c2ccccc2)c1C (stereo not drawn) [I-105] | 3.12 (≈ 8.39 µM) | 12.5 (≈ 33.6 µM) | 0.39 (≈ 1.05 µM) | 21
2 | CCc1cccc(NC(=O)C(Cc2ccccc2)NC(=O)c2ccccc2)c1C (stereo not drawn) [I-116] | 6.25 (≈ 16.2 µM) | 6.25 (≈ 16.2 µM) | 0.78 (≈ 2.02 µM) | 90
3 | CCc1ccccc1C(=O)NC(Cc1ccccc1)C(=O)Nc1ccccc1C (stereo not drawn) [I-123] | > 50 | > 50 | 1.56 (≈ 4.04 µM) | >100
4 | CCCc1ccccc1NC(=O)C(Cc1ccccc1)NC(=O)c1ccccc1 (stereo not drawn) [I-126] | > 50 | > 50 | 1.56 (≈ 4.04 µM) | 10
5 | CCCc1cccc(NC(=O)C(Cc2ccccc2)NC(=O)c2ccccc2)c1C (stereo not drawn) [I-127] | > 50 | > 50 | 3.12 (≈ 7.8 µM) | 100
6 | Cc1c(NC(=O)C(Cc2ccccc2)NC(=O)c2ccccc2)cccc1C(C)C (stereo not drawn) [I-138] | 6.25 (≈ 15.6 µM) | > 50 | 0.78 (≈ 1.95 µM) | >100
7 | O=C(NC(Cc1ccccc1)C(=O)Nc1ccccc1C(F)F)c1ccccc1 (stereo not drawn) [I-148] | 6.25 (≈ 15.8 µM) | > 50 | 3.12 (≈ 7.92 µM) | 100
8 | Cc1c(NC(=O)C(Cc2ccccc2)NC(=O)c2ccccc2)cccc1C(F)F (stereo not drawn) [I-149] | > 50 | > 50 | 0.39 (≈ 0.955 µM) | 20
9 | O=C(NC(Cc1ccccc1)C(=O)Nc1ccccc1N1CCCC1)c1ccccc1 (stereo not drawn) [I-192] | 9.4 (≈ 22.7 µM) | 25 (≈ 60.5 µM) | 0.78 (≈ 1.89 µM) | >100
10 | Cc1c(NC(=O)C(Cc2ccccc2)NC(=O)c2ccccc2)cccc1N1CCCC1 (stereo not drawn) [I-193] | 6.25 (≈ 14.6 µM) | 50 (≈ 117 µM) | 6.25 (≈ 14.6 µM) | >100
11 | O=C(NC(Cc1ccccc1)C(=O)Nc1ccccc1-n1cncn1)c1ccccc1 (stereo not drawn) [I-203] | 12.5 (≈ 30.4 µM) | 50 (≈ 122 µM) | 0.78 (≈ 1.9 µM) | >100
12 | O=C(NC(Cc1ccccc1)C(=O)Nc1cccc2[nH]ccc12)c1ccccc1 (stereo not drawn) [II-27] | 12.5 (≈ 32.6 µM) | > 50 | 0.39 (≈ 1.02 µM) | 41
13 | O=C(NC(Cc1ccccc1)C(=O)Nc1cccc2sccc12)c1ccccc1 (stereo not drawn) [II-46] | 3.12 (≈ 7.8 µM) | 3.12 (≈ 7.8 µM) | 0.195 (≈ 0.487 µM) | >100
14 | O=C(NC(Cc1ccccc1)C(=O)Nc1cccc2ccsc12)c1ccccc1 (stereo not drawn) [II-47] | 1.56 (≈ 3.9 µM) | 3.12 (≈ 7.8 µM) | 1.56 (≈ 3.9 µM) | >100
15 | O=C(NC(Cc1ccccc1)C(=O)Nc1cccc2ccoc12)c1ccccc1 (stereo not drawn) [II-65] | > 50 | > 50 | 0.39 (≈ 1.01 µM) | 78
16 | O=C(NC(Cc1ccc(O)cc1)C(=O)Nc1cccc2c1CCCC2)c1ccccc1 (stereo not drawn) [IX-6, N-(3-(4-hydroxyphenyl)-1-oxo-1-((5,6,7,8-tetrahydronaphthalen-1-yl)amino)propan-2-yl)benzamide] | 6.25 (≈ 15.1 µM) | 6.25 (≈ 15.1 µM) | 1.56 (≈ 3.76 µM) | 21
17 | O=C(NC(Cc1ccccc1)C(=O)Nc1cccc2ccncc12)c1ccccc1 (stereo not drawn) [IX-15, N-(1-(isoquinolin-8-ylamino)-1-oxo-3-phenylpropan-2-yl)benzamide] | 6.25 (≈ 15.8 µM) | 25 (≈ 63.2 µM) | 0.78 (≈ 1.97 µM) | 85

Row | SMILES | MIC [1] [µg/mL] | MIC [2] [µg/mL] | MIC [3] [µg/mL] | MCC mammalian cells Vero E6 ATCC CRL1586 [4] [µg/mL]
18 | O=C(NC(Cc1ccc(O)cc1)C(=O)Nc1cccc2ccncc12)c1ccccc1 (stereo not drawn) [IX-18, N-(3-(4-hydroxyphenyl)-1-(isoquinolin-8-ylamino)-1-oxopropan-2-yl)benzamide] | 6.25 (≈ 15.2 µM) | 12.5 (≈ 30.4 µM) | 0.39 (≈ 0.948 µM) | >100
19 | O=C(NC(Cc1ccc(O)cc1)C(=O)Nc1cccc2c1OCCO2)c1ccccc1 (stereo not drawn) [IX-21, N-(1-((2,3-dihydrobenzo[b][1,4]dioxin-5-yl)amino)-3-(4-hydroxyphenyl)-1-oxopropan-2-yl)benzamide] | 6.25 (≈ 14.9 µM) | 6.25 (≈ 14.9 µM) | 0.78 (≈ 1.86 µM) | >100
20 | COc1ccccc1NC(=O)C(Cc1ccc(O)cc1)NC(=O)c1ccccc1 (stereo not drawn) [IX-26, N-(3-(4-hydroxyphenyl)-1-((2-methoxyphenyl)amino)-1-oxopropan-2-yl)benzamide] | 25 (≈ 64 µM) | 50 (≈ 128 µM) | 1.25 (≈ 3.2 µM) | >100
21 | Cc1ccccc1NC(=O)C(Cc1ccc(O)cc1)NC(=O)c1cccs1 (stereo not drawn) [IX-28, N-(3-(4-hydroxyphenyl)-1-oxo-1-(o-tolylamino)propan-2-yl)thiophene-2-carboxamide] | 12.5 (≈ 32.9 µM) | 12.5 (≈ 32.9 µM) | 0.39 (≈ 1.03 µM) | 80
22 | COc1ccccc1NC(=O)C(Cc1ccccc1)NC(=O)c1cccs1 (stereo not drawn) [IX-29, N-(1-((2-methoxyphenyl)amino)-1-oxo-3-phenylpropan-2-yl)thiophene-2-carboxamide] | 3.12 (≈ 8.21 µM) | 6.25 (≈ 16.4 µM) | 0.195 (≈ 0.513 µM) | >100
23 | O=C(NC(Cc1ccccc1)C(=O)Nc1cccc2cnccc12)c1cccs1 (stereo not drawn) [IX-30, N-(1-(isoquinolin-5-ylamino)-1-oxo-3-phenylpropan-2-yl)thiophene-2-carboxamide] | 3.12 (≈ 7.78 µM) | 6.25 (≈ 15.6 µM) | 0.195 (≈ 0.486 µM) | 37
24 | O=C(NC(Cc1ccccc1)C(=O)Nc1cccc2c1OCCO2)c1cccs1 (stereo not drawn) [IX-31, N-(1-((2,3-dihydrobenzo[b][1,4]dioxin-5-yl)amino)-1-oxo-3-phenylpropan-2-yl)thiophene-2-carboxamide] | 3.12 (≈ 7.65 µM) | 3.12 (≈ 7.65 µM) | 0.195 (≈ 0.477 µM) | 30
25 | COc1ccccc1NC(=O)C(Cc1ccc(O)cc1)NC(=O)c1cccs1 (stereo not drawn) [IX-32, N-(3-(4-hydroxyphenyl)-1-((2-methoxyphenyl)amino)-1-oxopropan-2-yl)thiophene-2-carboxamide] | 12.5 (≈ 31.5 µM) | 6.25 (≈ 15.8 µM) | 0.195 (≈ 0.492 µM) | 100
26 | O=C(NC(Cc1ccc(O)cc1)C(=O)Nc1cccc2cnccc12)c1cccs1 (stereo not drawn) [IX-33, N-(3-(4-hydroxyphenyl)-1-(isoquinolin-5-ylamino)-1-oxopropan-2-yl)thiophene-2-carboxamide] | 12.5 (≈ 29.9 µM) | 6.25 (≈ 15 µM) | 0.195 (≈ 0.467 µM) | 80
27 | O=C(NC(Cc1ccc(O)cc1)C(=O)Nc1cccc2c1OCCO2)c1cccs1 (stereo not drawn) [IX-34, N-(1-((2,3-dihydrobenzo[b][1,4]dioxin-5-yl)amino)-3-(4-hydroxyphenyl)-1-oxopropan-2-yl)thiophene-2-carboxamide] | 6.25 (≈ 14.7 µM) | 3.12 (≈ 7.36 µM) | 0.39 (≈ 0.919 µM) | 85
28 | COc1ncccc1NC(=O)C(Cc1ccccc1)NC(=O)c1ccccc1 (stereo not drawn) [IX-38, N-(1-((2-methoxypyridin-3-yl)amino)-1-oxo-3-phenylpropan-2-yl)benzamide] | 6.25 (≈ 16.6 µM) | 6.25 (≈ 16.6 µM) | 0.39 (≈ 1.04 µM) | 38
29 | O=C(NC(Cc1ccccc1)C(=O)Nc1cccc2cn[nH]c12)c1ccccc1 (stereo not drawn) [IX-39, N-(1-((1H-indazol-7-yl)amino)-1-oxo-3-phenylpropan-2-yl)benzamide] | > 50 | > 50 | 1.56 (≈ 4.06 µM) | 20
30 | O=C(NC(Cc1ccc(O)cc1)C(=O)Nc1cccc2cc[nH]c12)c1ccccc1 (stereo not drawn) [IX-40, N-(1-((1H-indol-7-yl)amino)-3-(4-hydroxyphenyl)-1-oxopropan-2-yl)benzamide] | 12.5 (≈ 31.3 µM) | 12.5 (≈ 31.3 µM) | 0.39 (≈ 0.976 µM) | 78
31 | O=C(NC(Cc1ccccc1)C(=O)Nc1cccc2cc[nH]c12)c1cccs1 (stereo not drawn) [IX-41, N-(1-((1H-indol-7-yl)amino)-1-oxo-3-phenylpropan-2-yl)thiophene-2-carboxamide] | 12.5 (≈ 32.1 µM) | 12.5 (≈ 32.1 µM) | 0.39 (≈ 1 µM) | 48
32 | COc1ccccc1NC(=O)C(Cc1ccccc1)NC(=O)c1cccc2[nH]ccc12 (stereo not drawn) [IX-43, N-(1-((2-methoxyphenyl)amino)-1-oxo-3-phenylpropan-2-yl)-1H-indole-4-carboxamide] | 6.25 (≈ 15.1 µM) | 12.5 (≈ 30.2 µM) | 0.39 (≈ 0.943 µM) | 59
33 | O=C(NC(Cc1ccccc1)C(=O)Nc1cccc2cnccc12)c1cccc2[nH]ccc12 (stereo not drawn) [IX-44, N-(1-(isoquinolin-5-ylamino)-1-oxo-3-phenylpropan-2-yl)-1H-indole-4-carboxamide] | 1.56 (≈ 3.59 µM) | 3.12 (≈ 7.19 µM) | 0.195 (≈ 0.449 µM) | 70
